Results from patent publication US8642544B2, “N-terminus conformationally constrained GLP-1 receptor agonist compounds” (Amylin Pharmaceuticals, LLC, priority 2009, dated 2014).
Read-outs that look alike come from different tables or passages of the source.

Target: T1, GLP-1 receptor (Rattus norvegicus, UniProt P32301)
T1 construct: 96-well assay plate containing RIN m5f cell membranes in an ATP/GTP mixture; endogenous in cells; host or cells: RIN m5f cell membranes
T1 sequence (P32301 22-463): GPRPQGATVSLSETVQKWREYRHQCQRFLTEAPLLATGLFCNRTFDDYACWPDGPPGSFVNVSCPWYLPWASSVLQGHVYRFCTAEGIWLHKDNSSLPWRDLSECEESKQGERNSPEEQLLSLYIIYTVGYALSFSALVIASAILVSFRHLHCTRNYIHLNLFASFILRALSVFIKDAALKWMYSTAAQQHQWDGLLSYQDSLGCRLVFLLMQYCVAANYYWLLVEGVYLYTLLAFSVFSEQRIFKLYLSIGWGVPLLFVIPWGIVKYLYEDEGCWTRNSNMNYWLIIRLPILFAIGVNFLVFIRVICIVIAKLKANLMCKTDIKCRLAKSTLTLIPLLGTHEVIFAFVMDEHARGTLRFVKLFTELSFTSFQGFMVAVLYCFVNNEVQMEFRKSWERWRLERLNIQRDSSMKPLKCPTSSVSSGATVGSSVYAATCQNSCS
Assay: in vitro functional assay at the GLP-1 receptor (cyclase, cAMP production in RIN m5f cell membranes)
Format: biochemical
Procedure: The compounds shown in Table 1 below were analyzed in an in vitro functional assay at the GLP-1 receptor. The assay was conducted as follows: Membrane fractions were prepared from confluent cultures of RIN m5f cells. Compounds were serially diluted with an assay buffer, and then added to a 96-well assay plate containing RIN m5f cell membranes in an ATP/GTP mixture. Cyclase activities were determined by measuring the production of cAMP induced through GLP-1 receptor activation. Quantification of cAMP production was achieved through a competitive chemiluminescence assay with a biotinylated-cAMP probe using Perkin Elmer Fusion™-Alpha Microplate Analyzer (AlphaScreen™ technology). The compound EC50 values were obtained through fitting the concentration-response curves to a four-parameter logistic equation within GraphPad PRISM® software.

[1] = Cyclase GLP-1 Receptor EC50 (nM), Table 1, RIN m5f cell membranes, cAMP production (AlphaScreen)

Row | SMILES | EC50 [1] [nM] | other results
1 | CC[C@H](C)[C@H](NC(=O)[C@H](Cc1ccccc1)NC(=O)[C@H](CC(C)C)NC(=O)[C@H](CCCNC(=N)N)NC(=O)[C@@H](NC(=O)[C@H](C)NC(=O)[C@H](CCC(=O)O)NC(=O)[C@H](CCC(=O)O)NC(=O)[C@H](CCC(=O)O)NC(=O)[C@H](CC(C)C)NC(=O)[C@H](CCC(N)=O)NC(=O)[C@H](CCCCN)NC(=O)[C@H](CO)NC(=O)[C@H](CC(C)C)NC(=O)[C@H](CC(=O)O)NC(=O)[C@H](CO)NC(=O)[C@@H](NC(=O)[C@H](Cc1ccccc1)NC(=O)[C@@H](NC(=O)CNC(=O)[C@@H]1CSCN1C(=O)CNC(=O)[C@@H](N)Cc1c[nH]cn1)[C@@H](C)O)[C@@H](C)O)C(C)C)C(=O)N[C@@H](CCC(=O)O)C(=O)N[C@@H](Cc1ccccc1)C(=O)N[C@@H](CC(C)C)C(=O)N[C@@H](CCCCN)C(=O)N[C@@H](CC(N)=O)C(N)=O [5C] | – | EC50 (Table 1, RIN m5f cell membranes, cAMP production (AlphaScreen), read-out: Cyclase GLP-1 Receptor EC50): 1.06 nM
2 | CC[C@H](C)[C@H](NC(=O)[C@H](Cc1ccccc1)NC(=O)[C@H](CC(C)C)NC(=O)[C@H](CCCNC(=N)N)NC(=O)[C@@H](NC(=O)[C@H](C)NC(=O)[C@H](CCC(=O)O)NC(=O)[C@H](CCC(=O)O)NC(=O)[C@H](CCC(=O)O)NC(=O)[C@H](CC(C)C)NC(=O)[C@H](CCC(N)=O)NC(=O)[C@H](CCCCN)NC(=O)[C@H](CO)NC(=O)[C@H](CC(C)C)NC(=O)[C@H](CC(=O)O)NC(=O)[C@H](CO)NC(=O)[C@@H](NC(=O)[C@H](Cc1ccccc1)NC(=O)[C@@H](NC(=O)CNC(=O)[C@@H]1CCCN1C(=O)[C@@H](NC(=O)[C@@H](N)Cc1c[nH]cn1)C(C)C)[C@@H](C)O)[C@@H](C)O)C(C)C)C(=O)N[C@@H](CCC(=O)O)C(=O)N[C@@H](Cc1ccccc1)C(=O)N[C@@H](CC(C)C)C(=O)N[C@@H](CCCCN)C(=O)N[C@@H](CC(N)=O)C(N)=O [6C] | 152 | –
3 | CC[C@H](C)[C@H](NC(=O)[C@H](Cc1ccccc1)NC(=O)[C@H](CC(C)C)NC(=O)[C@H](CCCNC(=N)N)NC(=O)[C@@H](NC(=O)[C@H](C)NC(=O)[C@H](CCC(=O)O)NC(=O)[C@H](CCC(=O)O)NC(=O)[C@H](CCC(=O)O)NC(=O)[C@H](CC(C)C)NC(=O)[C@H](CCC(N)=O)NC(=O)[C@H](CCCCN)NC(=O)[C@H](CO)NC(=O)[C@H](CC(C)C)NC(=O)[C@H](CC(=O)O)NC(=O)[C@H](CO)NC(=O)[C@@H](NC(=O)[C@H](Cc1ccccc1)NC(=O)[C@@H](NC(=O)[C@@H]1CSSC[C@@H](NC(=O)[C@@H](N)Cc2c[nH]cn2)C(=O)N2CCC[C@H]2C(=O)N1)[C@@H](C)O)[C@@H](C)O)C(C)C)C(=O)N[C@@H](CCC(=O)O)C(=O)N[C@@H](Cc1ccccc1)C(=O)N[C@@H](CC(C)C)C(=O)N[C@@H](CCCCN)C(=O)N[C@@H](CC(N)=O)C(N)=O [8B] | 1.26 | –
4 | CC[C@H](C)[C@H](NC(=O)[C@H](Cc1ccccc1)NC(=O)[C@H](CC(C)C)NC(=O)[C@H](CCCNC(=N)N)NC(=O)[C@@H](NC(=O)[C@H](C)NC(=O)[C@H](CCC(=O)O)NC(=O)[C@H](CCC(=O)O)NC(=O)[C@H](CCC(=O)O)NC(=O)[C@H](CC(C)C)NC(=O)[C@H](CCC(N)=O)NC(=O)[C@H](CCCCN)NC(=O)[C@H](CO)NC(=O)[C@H](CC(C)C)NC(=O)[C@H](CC(=O)O)NC(=O)[C@H](CO)NC(=O)[C@@H](NC(=O)[C@H](Cc1ccccc1)NC(=O)[C@@H](NC(=O)[C@H]1CSSC[C@@H](NC(=O)[C@@H](N)Cc2c[nH]cn2)C(=O)N2CCC[C@H]2C(=O)N1)[C@@H](C)O)[C@@H](C)O)C(C)C)C(=O)N[C@@H](CCC(=O)O)C(=O)N[C@@H](Cc1ccccc1)C(=O)N[C@@H](CC(C)C)C(=O)N[C@@H](CCCCN)C(=O)N[C@@H](CC(N)=O)C(N)=O [8C] | 969 | –
5 | CC[C@H](C)[C@H](NC(=O)[C@H](Cc1ccccc1)NC(=O)[C@H](CC(C)C)NC(=O)[C@H](CCCNC(=N)N)NC(=O)[C@@H](NC(=O)[C@H](C)NC(=O)[C@H](CCC(=O)O)NC(=O)[C@H](CCC(=O)O)NC(=O)[C@H](CCC(=O)O)NC(=O)[C@H](CC(C)C)NC(=O)[C@H](CCC(N)=O)NC(=O)[C@H](CCCCN)NC(=O)[C@H](CO)NC(=O)[C@H](CC(C)C)NC(=O)[C@H](CC(=O)O)NC(=O)[C@H](CO)NC(=O)[C@@H](NC(=O)[C@H](Cc1ccccc1)NC(=O)[C@@H](NC(=O)[C@H]1CSSC[C@H](NC(=O)[C@@H](N)Cc2c[nH]cn2)C(=O)N2CCC[C@H]2C(=O)N1)[C@@H](C)O)[C@@H](C)O)C(C)C)C(=O)N[C@@H](CCC(=O)O)C(=O)N[C@@H](Cc1ccccc1)C(=O)N[C@@H](CC(C)C)C(=O)N[C@@H](CCCCN)C(=O)N[C@@H](CC(N)=O)C(N)=O [8D] | 106 | –
6 | CC[C@H](C)[C@H](NC(=O)[C@H](Cc1ccccc1)NC(=O)[C@H](CC(C)C)NC(=O)[C@H](CCCNC(=N)N)NC(=O)[C@@H](NC(=O)[C@H](C)NC(=O)[C@H](CCC(=O)O)NC(=O)[C@H](CCC(=O)O)NC(=O)[C@H](CCC(=O)O)NC(=O)[C@H](CC(C)C)NC(=O)[C@H](CCC(N)=O)NC(=O)[C@H](CCCCN)NC(=O)[C@H](CO)NC(=O)[C@H](CC(C)C)NC(=O)[C@H](CC(=O)O)NC(=O)[C@H](CO)NC(=O)[C@@H](NC(=O)[C@H](Cc1ccccc1)NC(=O)[C@@H](NC(=O)CN1CC[C@@H](C(=O)O)[C@H](NC(=O)[C@H](C)NC(=O)[C@@H](N)Cc2c[nH]cn2)C1=O)[C@@H](C)O)[C@@H](C)O)C(C)C)C(=O)N[C@@H](CCC(=O)O)C(=O)N[C@@H](Cc1c[nH]c2ccccc12)C(=O)N[C@@H](CC(C)C)C(=O)N[C@@H](CCCCN)C(=O)N[C@@H](CCC(N)=O)C(=O)NCC(=O)NCC(=O)N1CCC[C@H]1C(=O)N[C@@H](CO)C(=O)N[C@@H](CCCCN)C(=O)N[C@@H](CCC(=O)O)C(=O)N[C@H](C(=O)N[C@H](C(=O)N[C@@H](CO)C(=O)O)[C@@H](C)CC)[C@@H](C)CC [16B] | 0.18 | –
7 | CC[C@H](C)[C@H](NC(=O)[C@H](Cc1ccccc1)NC(=O)[C@H](CC(C)C)NC(=O)[C@H](CCCNC(=N)N)NC(=O)[C@@H](NC(=O)[C@H](C)NC(=O)[C@H](CCC(=O)O)NC(=O)[C@H](CCC(=O)O)NC(=O)[C@H](CCC(=O)O)NC(=O)[C@H](CCSC)NC(=O)[C@H](CCC(N)=O)NC(=O)[C@H](CCCCN)NC(=O)[C@H](CO)NC(=O)[C@H](CC(C)C)NC(=O)[C@H](CC(=O)O)NC(=O)[C@H](CO)NC(=O)[C@@H](NC(=O)[C@H](Cc1ccccc1)NC(=O)[C@@H](NC(=O)CNC(=O)[C@@H]1CCCN1C(=O)[C@H](C)NC(=O)CCc1c[nH]cn1)[C@@H](C)O)[C@@H](C)O)C(C)C)C(=O)N[C@@H](CCC(=O)O)C(=O)N[C@@H](Cc1c[nH]c2ccccc12)C(=O)N[C@@H](CC(C)C)C(=O)N[C@@H](CCCCN)C(=O)N[C@@H](CC(N)=O)C(=O)N[C@@H](CCCCNC(=O)CCCC[C@@H]1SC[C@@H]2NC(=O)N[C@@H]21)C(N)=O [Compound 24D] | – | EC50 (Cyclase GLP-1 Receptor EC50 (nM), Table 3, methods of Example 16): 0.77 nM
8 | CC[C@H](C)[C@H](NC(=O)[C@H](Cc1ccccc1)NC(=O)[C@H](CC(C)C)NC(=O)[C@H](CCCNC(=N)N)NC(=O)[C@@H](NC(=O)[C@H](C)NC(=O)[C@H](CCC(=O)O)NC(=O)[C@H](CCC(=O)O)NC(=O)[C@H](CCC(=O)O)NC(=O)[C@H](CC(C)C)NC(=O)[C@H](CCC(N)=O)NC(=O)[C@H](CCCCN)NC(=O)[C@H](CO)NC(=O)[C@H](CC(C)C)NC(=O)[C@H](CC(=O)O)NC(=O)[C@H](CO)NC(=O)[C@@H](NC(=O)[C@H](Cc1ccccc1)NC(=O)[C@@H](NC(=O)CNC(=O)[C@@H]1CCCN1C(=O)[C@H]1CSC([C@@H](N)Cc2c[nH]cn2)N1)[C@@H](C)O)[C@@H](C)O)C(C)C)C(=O)N[C@@H](CCC(=O)O)C(=O)N[C@@H](Cc1ccccc1)C(=O)N[C@@H](CC(C)C)C(=O)N[C@@H](CCCCN)C(=O)N[C@@H](CC(N)=O)C(N)=O (some centres unmarked) [Compound in Figure 17B] | 668 | –
